Data reported in patent publication US20170334899A1, “AMINO-SUBSTITUTED ISOTHIAZOLES” (Bayer Pharma Aktiengesellschaft, priority 2014, published 2017).

How the values were obtained:
[1] = test system: human cervical tumor cell line HeLa (ATCC CCL-2); assay: SAC-Formation - Paclitaxel-Induced Assay; format: cell-based; details: Homo sapiens, HeLa, 24 h, HeLa cells, paclitaxel 0.05 μM, test range 0.005 μM-20 μM, read-out: IC50 [mol/l] SAC-Formation - Paclitaxel-Induced Assay
In short: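 HeLa cells incubated overnight at 37° C, then given paclitaxel (0.05 μM final) plus test compound (0.005–20 μM, 0.5% DMSO) together for 24 h at 37° C. Fixed cells stained for phospho-histone H3 Ser10 (mitotic cells) and Hoechst 33342 (cell count); imaging-derived mitotic index fitted by four-parameter Hill equation.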

HeLa = assay: Proliferation assay (crystal violet), HeLa; format: cell-based; details: Homo sapiens, HeLa, 96 h, HeLa cells; 4 days incubation; crystal violet staining; read-out: IC50 inhibition of proliferation, HeLa
In short: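 Tumor cells seeded at 1000–5000 cells/well in medium with 10% FCS; after 24 h, compounds added at 0.001–10 μM (0.5% DMSO) for 4 days. Cells fixed with glutaraldehyde, stained with crystal violet, dye dissolved in acetic acid and read at 595 nm. IC50 from 4-parameter fit, normalized to zero-point plate and untreated cells.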

`Cc1nsc(Nc2cnc(C(F)(F)F)cn2)c1C(=O)Nc1ccc(F)c(OC2CCN(CC(F)F)C2)c1` (centres unmarked) [Example 314, N-(3-{[1-(2,2-difluoroethyl)pyrrolidin-3-yl]oxy}-4-fluorophenyl)-3-methyl-5-{[5-(trifluoromethyl)pyrazin-2-yl]amino}-1,2-thiazole-4-carboxamide] gave an IC50 [1] of 78 nM and an IC50 (HeLa) of 410 nM.
In the case of `Cc1nsc(Nc2cnc(C(F)(F)F)cn2)c1C(=O)Nc1ccc(F)c(OC2CCN(CC(F)(F)F)C2)c1` (centres unmarked) [Example 315, N-(4-fluoro-3-{[1-(2,2,2-trifluoroethyl)pyrrolidin-3-yl]oxy}phenyl)-3-methyl-5-{[5-(trifluoromethyl)pyrazin-2-yl]amino}-1,2-thiazole-4-carboxamide], the IC50 [1] is reported as 60 nM and the IC50 (HeLa) is reported as 780 nM.
In the case of `Cc1nsc(Nc2cnc(C(F)(F)F)cn2)c1C(=O)Nc1ccc(F)c(OCC2CCN(CC(F)F)C2)c1` (centres unmarked) [Example 316, N-(3-{[1-(2,2-difluoroethyl)pyrrolidin-3-yl]methoxy}-4-fluorophenyl)-3-methyl-5-{[5-(trifluoromethyl)pyrazin-2-yl]amino}-1,2-thiazole-4-carboxamide], the IC50 [1] is reported as 45 nM and the IC50 (HeLa) is reported as 430 nM.
With `Cc1nsc(Nc2cnc(C(F)(F)F)cn2)c1C(=O)Nc1ccc(F)c(OCC2CCN(CCF)C2)c1` (centres unmarked) [Example 317, N-(4-fluoro-3-{[1-(2-fluoroethyl)pyrrolidin-3-yl]methoxy}phenyl)-3-methyl-5-{[5-(trifluoromethyl)pyrazin-2-yl]amino}-1,2-thiazole-4-carboxamide] the IC50 [1] was 610 nM and the IC50 (HeLa) was 450 nM.
For `Cc1nsc(Nc2cnc(C(F)(F)F)cn2)c1C(=O)Nc1ccc(F)c(OCC2CCN(C(CF)CF)C2)c1` (centres unmarked) [Example 320, N-(3-{[1-(1,3-difluoropropan-2-yl)pyrrolidin-3-yl]methoxy}-4-fluorophenyl)-3-methyl-5-{[5-(trifluoromethyl)pyrazin-2-yl]amino}-1,2-thiazole-4-carboxamide], the IC50 [1] was 290 nM and the IC50 (HeLa) was 680 nM.
`Cc1nsc(Nc2cnc(C(F)(F)F)cn2)c1C(=O)Nc1ccc(OCCNCCF)nc1` [Example 321, N-(6-{2-[(2-fluoroethyl)amino]ethoxy}pyridin-3-yl)-3-methyl-5-{[5-(trifluoromethyl)pyrazin-2-yl]amino}-1,2-thiazole-4-carboxamide] was tested, and the IC50 [1] was 1100 nM and the IC50 (HeLa) was 3400 nM.
Compound `Cc1nsc(Nc2cnc(C(F)(F)F)cn2)c1C(=O)Nc1ccc(OCCNCC(F)(F)F)nc1` [Example 322, 3-methyl-N-(6-{2-[(2,2,2-trifluoroethyl)amino]ethoxy}pyridin-3-yl)-5-{[5-(trifluoromethyl)pyrazin-2-yl]amino}-1,2-thiazole-4-carboxamide] has an IC50 [1] of 150 nM and an IC50 (HeLa) of 690 nM.
